From US10350309B2, “Methods of preparing ophthalmic formulations and uses of same” (Cognoptix, Inc., priority 2013, dated 2019) come the findings set out here.

A short description of data set [1]: Microscopic examination of mixture after ball milling agitation (particle size, uniformity). The note with it: heavy mineral oil, ball milling with 5 mm grinding media beads. The data set is classed as physicochemical. The method, then:
Microscopic examination of mixtures after ball milling can be used to assess uniformity and to estimate the particle size of the fluorescent molecular rotor compounds. Microscopic examination of the mixtures containing Compound 11 were performed using a compound optical microscope with a calibrated eyepiece micrometer, or reticle. For example, the eyepiece micrometer, reticle, can be aligned and calibrated with the stage micrometer by aligning the zero line of the reticle with the zero line of the stage micrometer, and the ratios between the micrometers or scales can be used to determine sizes and distances.

The nature of data set [2]: HPLC analysis of concentration and degradation of Compound 11 in mineral oil mixtures after ball milling agitation. The data set is classed as physicochemical. The method, then: The following HPLC method was used to analyze whether the concentration of fluorescent molecular rotor compounds in mixtures of mineral oil and Compound 11 was consistent with the expected concentration of the mixture. The HPLC analysis was also used to evaluate degradation of Compound 11 in the mixture. The HPLC instrument used was a Waters 2695 Separation Module, or equivalent containing a pump capable of delivering a gradient flow rate of 1.0 mL/min or equivalent and a Waters 2487 Multiwavelength Detector, or dual wavelength detector capable of detection at 215 nm and 320 nm, or equivalent. The column used was a Waters Deltapak C18 column, 5 μm, 3.9×150 mm, (Waters Corp., Milford, Mass., Catalog No.: WAT011793). The flow rate was 1.0 mL/min with detection at a wavelength of 215 nm and a column temperature of 25° C. The injection volume used for the concentration sample evaluation was 20 μL and for the related substances sample evaluation was 50 μL. The mobile phases were A: 0.1% trifluoroacetic acid in water, C: methanol, and D: ethanol, and the gradient program shown in Table 2 was used for the HPLC method.
In a mixture sample compared to a standard sample, increased relative peak area of the related substance peak (RT of 3.8 min, Table 3) compared to the peak area of Compound 11 (RT of 8.5 min, Table 3) would indicate degradation of Compound 11. The concentration in the mixture sample of Compound 11 was determined by analyzing the HPLC peak with a retention time of 8.5 min (Table 3) compared to a standard sample of Compound 11.
However, the concentration of the mixture of Compound 11 and heavy mineral oil after ball milling agitation with YTZ® grinding media beads of an average diameter of 0.5 mm was determined by HPLC (RT of 8.5 min, Table 3) to be 4.75 mg/g as compared to an expected concentration of 48.12 mg/g (504.3 mg/10.48 g, mineral oil and Compound 11). […] The concentration as measured by HPLC of the mixture of Compound 11 and heavy mineral oil after ball milling agitation with beads of an average diameter of 5 mm was 44.9 mg/g as compared to an expected concentration of 47.98 mg/g (504.8 mg/10.52 g, mineral oil and Compound 11), which was within the acceptable range.

For the molecule `COCCOCCOCCOC(=O)/C(C#N)=C/c1ccc2cc(N3CCCCC3)ccc2c1` [Compound 11], in data set [1], the “particle diameter by microscopic examination” value was “approximately 5 microns”. The “concentration of the mixture determined by HPLC” value in data set [2] (heavy mineral oil, ball milling with YTZ beads of average diameter 0.5 mm, expected 48.12 mg/g) was 4.75 mg/g. Also, the “concentration of the mixture measured by HPLC” value in data set [2] (heavy mineral oil, ball milling with beads of average diameter 5 mm, expected 47.98 mg/g) was 44.9 mg/g. Also, the “degradation of Compound 11 based on changes in the related substance peak (RT 3.8 min)” value in data set [2] (mixture in heavy mineral oil, after ball milling agitation, HPLC) was “no significant degradation”. Also, the “degradation of Compound 11 as analyzed by HPLC” value in data set [2] (mixture in heavy mineral oil, ball milling agitation with YTZ 5 mm beads) is given as “without degradation”.
